Measurements: patent publication US9115083B2 (Simpson Biotech Co., Ltd, priority 2011, dated 2015)
“And” between values parts separate entries of the source, which are not always exact repeats. Equal values may be shown once. Read-outs that look alike come from different tables or passages of the source.

Columns and labels:
HIV-1 protease = HIV-1 protease (Human immunodeficiency virus type 1 group M subtype B (isolate HXB2) (HIV-1), UniProt P04585); assay: HIV-1 protease inhibition assay (HPLC of hydrolysis product); assay type: biochemical
Description: HIV was a retrovirus with a single-stranded RNA genome. HIV protease was an important enzyme for replication. Translated proteins in the host cell were out into the desired shape by the enzyme. The substance was a protein dimer consisting of 99 amino acids, and the active center was Asp residues.
In this assay, oligopeptide (His-Lys-Ala-Arg-Val-Leu-Phe(NO2)-Glu-Ala-NLe-Ser-NH2) with strengthened absorbance was prepared as a substrate, in which para site of […] was modified by nitro. The substrate was incubated in the presence of HIV-1 protease and the test samples. Generation ratio of hydrolysis product (Phe (NO2)-Glu-Ala-NLe-Ser-NH2) was analyzed by HPLC, and the HIV-1 inhibitory activity in test sample was detected (Y. Wei, C. M. Ma, D. Y. Chen and M. Hattori: Anti-HIV-1 Protease Triterpenoids from Stauntonia Obovatifoloala Hayata Subsp. Phytochemistry, 69, 1875-1879, 2008). In this assay, pepsatatin A was used as a positive control.

HCV protease = HCV protease (Hepatitis C virus genotype 1a (isolate H77) (HCV), UniProt P27958); conditions: from PCT publication No. WO 2009/094807, cited from earlier work; for IC50: read-out: anti HCV activity
[1] = molecular target: dipeptidyl peptidase-IV (DPPIV) (Homo sapiens (Human), UniProt P27487); assay: dipeptidyl peptidase-IV (DPPIV) assay; assay type: biochemical
From the text: In addition, the dipeptidyl peptidase-IV (DPPIV) assay herein was applied to investigate the DPPIV inhibitory activity of the prepared compounds as described above. The method of the DPPIV assay was described in Lin et al., 1998. Inhibition of dipeptidyl peptidase IV by fluoroolefin-containing N-peptidyl-O-hydroxylamine peptidomimetics. Proc. Natl. Acad. Sci. USA Vol. 95, pp. 14020-14024.

[2] = tested on: Propionicbacterium acnes and lipopolysaccharide treated mice; conditions: cited from earlier work
HCV NS3/4A protease = HCV NS3/4A protease (Hepatitis C virus genotype 1a (isolate H77) (HCV), UniProt P27958); assay: HCV protease assay (fluorimetric, FRET substrate); assay type: biochemical
From the text: The HCV protease assay herein was applied to investigate the HCV-protease inhibitory activity of the prepared compounds as described above. The method of the HCV protease assay was described in D. T. Phuong, C. M. Ma, M. Hattori and J. S. Jin: Inhibitory Effects of Antrodins A-E from Antrodia cinnamomea and Their Metabolites on Hepatitis C Virus Protease. Phytotherapy Research, 23, 582-584, 2009. Two micro liters of a compound solution (using DMSO as solvent) was placed in 384 well micro plate, then 8 μl of HCV NS3/4A protease ([…]) was added to the well containing a sample and the plate was agitated. Finally, 10 μL of freshly prepared substrate (Ac-Asp-Glu-Dap(QXL™520)-Glu-Glu-Abu-COO-Ala-Ser-Cys(5-FAMsp)-NH2) (100× dilution of a DMSO stock solution) was added with sequential rotational shaking. The reaction mixture was incubated for 30 min at 37° C. The fluorimetric analyses were performed on an automated TECAN GENios plate reader with excitation wavelength at 485 nm and emission 530 nm. Each test compound was carried out in triplicate. The HCV—PR inhibition (%) was calculated by using the following equation: % inhibition=(Fvehicle control−[…])×100/Fvehicle control (Where F is the fluorescence value of vehicle control or of sample minus the fluorescence of the substrate control).

NS3/4A HCV protease = NS3/4A HCV protease (Hepatitis C virus genotype 1a (isolate H77) (HCV), UniProt P27958); assay: NS3/4A HCV protease inhibition assay; assay type: biochemical; conditions: read-out: NS3/4A HCV protease inhibitive activity IC50
Description: When sensitive cells were infected with HCV virus, some precursor proteins were translated from uncoated virus RNA in the cytoplasm. According to the protease, the precursor proteins were processed into different viral proteins. Among viral proteins, NS3, a serine protease and RNA helicase, was an important non-structural protein involved in virus protein maturation and virus genome replication.
In this assay, protein (FRET) was prepared and modified with fluorescent protein 5-FAM as a substrate and QXL™520 as a quencher. The substrate was incubated with NS3/4A HCV protease and testing samples, and the fluorescence intensity was measured, according to the mechanism shown in FIG. 7 (C. M. Ma, Yo Wei, Z. G. Wang and M. Hattori: Triterpenes from Cynomorium Songaricium-analysis of HCV Protease Inhibitory Activity, Quantification and Content Change Under the Influence of Heating. J. Nat. Med., 63, 9-14, 2009). In this assay, HCV NS3 Protease Inhibitor 2 was used as positive control.

[3] = read-out: HIV-1 protease inhibitive activity IC50
[4] = Table 10, first scaffold, read-out: IC50 against DPPIV (converted)
[5] = Table 10, second scaffold, read-out: IC50 against DPPIV (converted)
[6] = HCV NS3/4A protease, 30 min at 37° C., triplicate, read-out: IC50 against HCV protease

Sequence of dipeptidyl peptidase-IV (DPPIV) (P27487 whole entry, species assumed): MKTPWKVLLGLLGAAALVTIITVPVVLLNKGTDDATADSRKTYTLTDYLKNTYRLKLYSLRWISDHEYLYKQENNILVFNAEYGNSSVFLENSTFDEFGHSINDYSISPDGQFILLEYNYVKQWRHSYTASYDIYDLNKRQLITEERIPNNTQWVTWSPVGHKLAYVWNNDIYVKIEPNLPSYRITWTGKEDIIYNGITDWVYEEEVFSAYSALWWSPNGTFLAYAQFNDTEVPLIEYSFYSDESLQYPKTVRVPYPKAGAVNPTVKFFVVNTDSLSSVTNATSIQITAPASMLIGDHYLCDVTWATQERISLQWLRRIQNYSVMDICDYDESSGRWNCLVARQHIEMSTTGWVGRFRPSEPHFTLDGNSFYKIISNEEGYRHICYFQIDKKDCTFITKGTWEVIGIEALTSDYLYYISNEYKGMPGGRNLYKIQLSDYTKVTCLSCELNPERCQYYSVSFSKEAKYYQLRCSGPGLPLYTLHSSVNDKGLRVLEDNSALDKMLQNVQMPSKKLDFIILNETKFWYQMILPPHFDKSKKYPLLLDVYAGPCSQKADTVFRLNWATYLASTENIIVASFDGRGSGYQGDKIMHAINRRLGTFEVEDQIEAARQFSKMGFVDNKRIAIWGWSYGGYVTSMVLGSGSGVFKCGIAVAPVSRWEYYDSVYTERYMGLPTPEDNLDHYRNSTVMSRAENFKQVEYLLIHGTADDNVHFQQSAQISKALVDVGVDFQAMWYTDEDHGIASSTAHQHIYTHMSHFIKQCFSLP
Sequence of HCV protease (P27958 1027-1657): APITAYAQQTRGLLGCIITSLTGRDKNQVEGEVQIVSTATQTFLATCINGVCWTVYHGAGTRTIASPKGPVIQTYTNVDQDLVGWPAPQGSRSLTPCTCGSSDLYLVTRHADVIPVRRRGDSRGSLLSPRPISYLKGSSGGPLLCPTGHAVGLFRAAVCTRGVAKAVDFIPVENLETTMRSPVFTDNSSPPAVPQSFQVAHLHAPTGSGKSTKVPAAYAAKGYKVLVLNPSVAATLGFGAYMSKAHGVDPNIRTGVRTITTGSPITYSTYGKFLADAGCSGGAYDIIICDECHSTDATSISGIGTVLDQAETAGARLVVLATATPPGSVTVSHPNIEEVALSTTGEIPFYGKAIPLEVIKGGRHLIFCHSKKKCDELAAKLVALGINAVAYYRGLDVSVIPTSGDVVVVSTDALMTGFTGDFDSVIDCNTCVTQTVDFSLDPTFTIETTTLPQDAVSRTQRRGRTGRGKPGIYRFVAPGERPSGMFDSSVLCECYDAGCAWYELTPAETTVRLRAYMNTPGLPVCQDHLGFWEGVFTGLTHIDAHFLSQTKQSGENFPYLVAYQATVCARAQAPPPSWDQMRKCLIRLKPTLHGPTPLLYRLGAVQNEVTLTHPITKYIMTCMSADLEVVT
Sequence of HCV protease (P27958 1658-1711 partner): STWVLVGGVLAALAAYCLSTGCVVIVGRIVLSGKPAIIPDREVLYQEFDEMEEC
Sequence of HCV NS3/4A protease (P27958 1027-1657): as the sequence (P27958 1027-1657) above
Sequence of HCV NS3/4A protease (P27958 1658-1711 partner): as the sequence (P27958 1658-1711 partner) above
Sequence of NS3/4A HCV protease (P27958 1027-1657): as the sequence (P27958 1027-1657) above
Sequence of NS3/4A HCV protease (P27958 1658-1711 partner): as the sequence (P27958 1658-1711 partner) above

## CC(C)=CCOc1ccc([C@H]2C(=O)N(O)C(=O)[C@@H]2CC(C)C)cc1 (relative stereo) [Compound 4, (3R*,4S*)-1-hydroxy-3-isobutyl-4-[4-(3-methyl-2-butenyloxy)phenyl]pyrrolidine-2,5-dione]
HIV-1 protease; [3]
  IC50: 4.4 µM

## CC(C)=CCOc1ccc([C@@H]2C(=O)N(O)C(=O)[C@@H]2CC(C)C)cc1 (relative stereo) [Compound 5, (3R*,4R*)-1-hydroxy-3-isobutyl-4-[4-(3-methyl-2-butenyloxy)phenyl]pyrrolidine-2,5-dione]
HIV-1 protease; [3]
  IC50: 198 µM

## CC(C)=CCOc1ccc(C2=C(CC(C)C)C(=O)OC2=O)cc1 [Compound 1, 3-isobutyl-4-[4-(3-methyl-2-butenyloxy)phenyl]furan-2,5-dione]
HIV-1 protease
  IC50: > 300 µM
HCV protease
  IC50: 2.86 µM
[1]; [4]
  IC50: 79.5 µM

## CC(C)=CCOc1ccc(C2=C(CC(C)C)C(=O)NC2=O)cc1 [Compound 2, 3-isobutyl-4-[4-(3-methyl-2-butenyloxy)phenyl]-1H-pyrrol-2,5-dione]
HIV-1 protease
  IC50: 54 µM
HCV protease
  anti HCV activity (in words): low activity
[1]; [4]
  IC50: 160 µM

## CC(C)=CCOc1ccc(C2=C(CC(C)C)C(=O)N(O)C2=O)cc1 [Compound 3, 3-isobutyl-4-[4-(3-methyl-2-butenyloxy)phenyl]-1H-pyrrol-1-ol-2,5-dione]
HIV-1 protease
  IC50: 6.5 µM
HCV protease
  IC50: 8.8 µM
[1]; [4]
  IC50: 115 µM
[2]
  protective activity in treated mice: protective activity

## CC(C)=CCOc1ccc(C2=C(CC(C)C)C(=O)N(C(CC(C)C)C(=O)O)C2=O)cc1 (stereo not shown) [Compound A1, 2-(3-Isobutyl-4-(4-(3-methylbut-2-enyloxy)phenyl)-2,5-dioxo-2,5-dihydro-1H-pyrrol-1-yl)-4-methylpentanoic acid]
HCV NS3/4A protease
  IC50: 8.6 µM
[1]; [4]
  IC50: 105 µM

## COC(=O)[C@@H]1CCCN1C(=O)C(CC(C)C)N1C(=O)C(CC(C)C)=C(c2ccc(OCC=C(C)C)cc2)C1=O (stereo partly shown) [Compound A1-5]
[1]; IC50 against DPPIV, Table 10, first scaffold
  IC50: > 186 µM and 65 µM

## CC(C)CC1C(=O)N(C(CC(C)C)C(=O)N2CCC[C@H]2C(=O)O)C(=O)C1c1ccc(O)cc1 (stereo partly shown) [Compound A1-9]
[1]; [5]
  IC50: 29 µM

## CC(C)CC1C(=O)N(C(CC(C)C)C(=O)O)C(=O)C1c1ccc(O)cc1 (stereo not shown) [Compound A1-t]
[1]; [5]
  IC50: 75 µM

## CC(C)=CCOc1ccc(C2=C(CC(C)C)C(=O)N(C(Cc3ccccc3)C(=O)O)C2=O)cc1 (stereo not shown) [Compound A2, 2-(3-Isobutyl-4-(4-(3-methylbut-2-enyloxy)phenyl)-2,5-dioxo-2,5-dihydro-1H-pyrrol-1-yl)-3-phenylpropanoic acid]
HCV NS3/4A protease
  IC50: 14 µM
[1]; [4]
  IC50: 75.8 µM

## CC(C)CC1C(=O)N(C(Cc2ccccc2)C(=O)N2CCC[C@H]2C(=O)O)C(=O)C1c1ccc(O)cc1 (stereo partly shown) [Compound A2-14]
[1]; [5]
  IC50: 60 µM

## CC(C)CC1C(=O)N(C(Cc2ccccc2)C(=O)O)C(=O)C1c1ccc(O)cc1 (stereo not shown) [Compound A2-t]
[1]; [5]
  IC50: 90 µM

## CC(C)=CCOc1ccc(C2=C(CC(C)C)C(=O)N(C(CO)C(=O)O)C2=O)cc1 (stereo not shown) [Compound A3, 3-Hydroxy-2-(3-isobutyl-4-(4-(3-methylbut-2-enyloxy)phenyl)-2,5-dioxo-2,5-dihydro-1H-pyrrol-1-yl)propanoic acid]
HCV NS3/4A protease
  IC50: 27 µM
[1]; [4]
  IC50: 99.6 µM

## CC(C)CC1C(=O)N(C(CO)C(=O)N2CCC[C@H]2C(=O)O)C(=O)C1c1ccc(O)cc1 (stereo partly shown) [Compound A3-15]
[1]; [5]
  IC50: 85 µM

## CC(C)CC1C(=O)N(C(CO)C(=O)O)C(=O)C1c1ccc(O)cc1 (stereo not shown) [Compound A3-t]
[1]; [5]
  IC50: 70 µM

## CC(C)=CCOc1ccc(C2C(=O)N(O)C(=O)/C2=C\C(C)C)cc1 (stereo not shown) [Compound of formula (XIII)]
HIV-1 protease; [3]
  IC50: 16.6 µM
NS3/4A HCV protease
  IC50: 8.7 µM

## CC(C)=CCOc1ccc(C2=C(CC(C)C)C(=O)N(C(C(=O)C(=O)NC(C)C(=O)OC(C)(C)C)c3ccccc3)C2=O)cc1 (stereo not shown) [KC-4-2]
HCV NS3/4A protease; [6]
  IC50: 18.3 µM

## CC(C)CC1C(=O)N(CC(C(=O)C(=O)NC(C)C(=O)O)c2ccccc2)C(=O)C1c1ccc(O)cc1 (stereo not shown) [KC-4]
HCV NS3/4A protease; [6]
  IC50: 14.6 µM

## CC(C)=CCOc1ccc(C2=C(CC(C)C)C(=O)N(C(C(=O)C(=O)NC(Cc3ccccc3)C(=O)OC(C)(C)C)c3ccccc3)C2=O)cc1 (stereo not shown) [KC-5-2]
HCV NS3/4A protease; [6]
  IC50: 51.6 µM

## CC(C)CC1C(=O)N(CC(C(=O)C(=O)NC(Cc2ccccc2)C(=O)O)c2ccccc2)C(=O)C1c1ccc(O)cc1 (stereo not shown) [KC-5]
HCV NS3/4A protease; [6]
  IC50: 9 µM

## CC(C)CC1C(=O)C(C(c2ccccc2)C(O)C(=O)O)C(=O)C1c1ccc(O)cc1 (stereo not shown) [KC-t]
HCV NS3/4A protease; [6]
  IC50: 73 µM

## CC(C)=CCOc1ccc(C2=C(CC(C)C)C(=O)N(C(C(=O)C(N)=O)c3ccccc3)C2=O)cc1 (stereo not shown) [KCnh-1]
HCV NS3/4A protease; [6]
  IC50: 1.95 µM

## CC(C)CC1C(=O)N(C(C(=O)C(N)=O)c2ccccc2)C(=O)C1c1ccc(O)cc1 (stereo not shown) [KCnh-2]
HCV NS3/4A protease; [6]
  IC50: 1.4 µM
